Assay results as given in patent US9051598B2, “Specific detection of D-glucose by a tetraphenylethene-base fluorescent sensor” (THE HONG KONG UNIVERSITY OF SCIENCE AND TECHNOLOGY, priority 2011, dated 2015).
Where two headings read alike, the source gives them in different places. Values belong to the compound of their own block, whether it stands above or below them.

Tests used:
[1] = FL response of probe to D-mannose in carbonate buffer; conditions: TPEMB 10 μM, 10 vol % DMSO, any amount
[2] = FL response of probe to D-galactose in carbonate buffer; conditions: TPEMB 10 μM, 10 vol % DMSO, any amount
[3] = FL response of TPE boronic acid probe to D-glucose in carbonate buffer
Description: The present subject matter in one embodiment relates to a selective detection of D-glucose (D-Glu) by TPEDB probe in a sample with its fluorescence enhancement. The concentration or level of D-Glu detectable in a sample is not particularly limited, but is preferably about 0.2 mM or more. […] When 0.2 mM Glu was added, however, the FL spectrum of TPEDB was intensified. The FL intensity increased with an increase in the amount of Glu. At [Glu]=5 mM, the solution of TPEDB became very emissive, with an intensity ca. 5.4-fold higher than that in the absence of Glu.
(§1) Into a 100 mL volumetric flask were added 1.120 g of K2CO3, 0.190 g of KHCO3 and 80 mL of deionized water. After adding 3 mL of DMSO into the carbonate buffer, 1 mL of the stock solution of TPEDB in DMSO (10 mM) was added under stirring. The volume of the solution was increased to 100 mL by adding an appropriate amount of deionized water. The resultant solution of TPEDB (0.1 mM) in the carbonate buffer (pH 10.5) was stirred for 15 min before use.
Into a 25 mL volumetric flask was added 90 mg of a saccharide (Glu, Fru, Gal or Man) and 25 mL of deionized water. An aliquot of the resultant stock solution (20 mM) was diluted in another volumetric flask to obtain a sample solution with a desired concentration (2.0 mM, 0.20 mM, 20 μM or 2.0 μM).
An aliquot (2.0 mL) of the stock solution of TPEDB (0.1 mM) in the carbonate buffer containing 4 vol % DMSO and 2.0 mL of the stock solution of Glu (20 mM) were added into a 10 mL volumetric flask. After shaking for a few seconds, a solution of TPEDB (50 μM) with 10 mM of Glu in the carbonate buffer containing 2 vol % DMSO was obtained. The solution was allowed to stand for 30 min before its FL measurement.
To prepare a solution of TPEDB (50 μM) with 8 mM of Glu in the carbonate buffer containing 2 vol % DMSO, 1.6 mL of the stock solution of Glu (20 mM) and 0.4 mL of deionized water were added to 2.0 mL of a stock solution of TPEDB (0.1 mM) in the carbonate buffer containing 4 vol % DMSO.

[4] = FL response of probe to D-fructose in carbonate buffer
[5] = Miscibility / solubility of TPEDB in aqueous media; format: physicochemical
Excerpt: (§2) The light emission of TPEDB started to decrease in intensity when the pH of the buffer was raised to >8.61 and became very weak at pH≧9.74. Since the pKa of PBA is ca. 9, TPEDB was ionized by the alkaline medium and became soluble in the buffers with high pH. The solutions of TPEDB were virtually nonfluorescent, while its aggregates were highly emissive, proving that TPEDB, like its parent form TPE, is AIE-active.

[6] = Detection of Glu in artificial urine by TPEDB; conditions: TPEDB 50 μM, carbonate buffer with artificial urine
Description: To explore the potential of TPEDB for real-world applications, the possibility of using TPEDB for detection of Glu in urine was tested. […] The profile of the I/I0 versus [Glu] plot for the urine Glu, however, was different from that for the “pure” Glu (in the carbonate buffer without urine) in the high-[Glu] region. Although the exact reason for this is unclear at the present time, it may be caused by the interactions of urea, α-hydroxycarboxylic acids, and salts in the urine with the boronate units of TPEDB.
An artificial urine was prepared according to the recipe reported by Keevil et al. and Whitesides et al (C. W. Keevil, et al, Lett. Appl. Microbiol. 1997. 24, 203; G. M. Whitesides, et al, Proc. Natl. Acad. Sci. U.S.A. 2008, 105, 19606). 1.1 mM Lactic acid, 2.0 mM citric acid, 25 mM sodium bicarbonate, 170 mM urea, 2.5 mM calcium chloride, 90 mM sodium chloride, 2.0 mM magnesium sulfate, 7.0 mM potassium dihydrogen phosphate, 7.0 mM dipotassium hydrogen phosphate, 10 mM sodium sulfate, and 25 mM ammonium chloride were mixed in deionized water. The pH value of the solution was adjusted to 6.0 by the addition of 1.0 M hydrochloric acid. […]
An aliquot (1 mL) of the artificial urine solution with a desired concentration of Glu was added to 2 mL solution of TPEDB (100 μM) in the carbonate buffer containing 4 vol % DMSO. […] FL spectrum of the mixture was measured after stirring for 30 min.

[7] = FL intensity of TPEDB in Britton-Robinson buffers at different pH; format: physicochemical
Description: as §2
as §1, with “4.0 mg NaOH” for “1.120 g of K2CO3, 0.190 g of KHCO3”, “NaOH solution (0.001M) containing 4 vol % DMSO” for “carbonate buffer (pH 10.5)”
Into a 100 mL volumetric flask were added 4.611 H3PO4, 2.402 g CH3COOH, and 2.473 g B(OH)3, and the volume of the solution was increased to 100 mL by adding appropriate amount of deionized water. The resultant solution of the acid mixture (0.4 M) was stirred for 15 min before use. Into a 100 mL volumetric flask was added 1.600 g NaOH, and the volume of the solution was increased to 100 mL by adding appropriate amount of deionized water. The resultant solution of base (0.4 M) was stirred for 15 min before use. An aliquot (0.4 mL) of the solution of acid mixture (0.4 M) and appropriate amount of the solution of NaOH (0.4 M) from 0 mL to 1.6 mL were added into a 10 mL volumetric flask. The volume of the solution was increased to 2.0 mL by adding an appropriate amount of deionized water. The resultant standard Britton-Robinson buffer (0.08 M) with various pH was left to stand for a few minutes before use.
An aliquot (2.0 mL) of the stock solution of TPEDB (0.1 mM) in the NaOH solution (0.001M) containing 4 vol % DMSO and 2.0 mL of the standard Britton-Robinson buffer (0.08 M) with various pH were added into a 10 mL volumetric flask. After shaking for a few seconds, solutions of TPEDB (50 μM) with various pH in the Britton-Robinson buffer containing 2 vol % DMSO were obtained. The solutions were allowed to stand for 30 min, and their FL spectra were measured before the pH values were measured using pH-meter.

[8] = FL response of TPEDB to Glu in the presence of a saccharide interferent
Description: In the presence of Fru, the FL spectrum of TPEDB was gradually intensified by the addition of Glu, but the rate of increase in the intensity was lower because of the competition between Glu and Fru to bind with TPEDB. Similarly, Gal and Man interfered with the FL response of TPEDB to Glu, although the effects were smaller.
Solutions of Glu (40 mM-4.0 μM), Fru (0.4 mM), Gal (0.4 mM) and Man (0.4 mM) in deionized water were prepared. An aliquot (2.0 mL) of the solution of TPEDB (0.1 mM) in the carbonate buffer containing 4 vol % DMSO was added into a 10 mL volumetric flask, followed by the addition of 1.0 mL of a solution of Fru (0.4 mM) and 1.0 mL of a solution of Glu (40 mM). After shaking for a few seconds, a solution of TPEDB (50 μM) with 10 mM of Glu and 0.1 mM of Fru in the carbonate buffer containing 2% DMSO was obtained. The solution was allowed to stand for 30 min before its FL measurement. The solution of TPEDB and Glu containing another saccharide (Gal or Man) was prepared by similar procedures.

[9] = cited from earlier work
[10] = cited from earlier work; remark: listed apart in the source
[11] = Britton-Robinson buffer, 2 vol % DMSO

Structure (SMILES): OB(O)c1ccc(C(=C(c2ccccc2)c2ccccc2)c2ccccc2)cc1 [TPEMB, 4-(1,2,2-triphenylvinyl)phenylboronic acid]
Emission on addition of Man [1]: remained nonemissive
Emission on addition of Gal [2]: remained nonemissive
Change in FL spectrum on addition of Glu ([3]; TPEMB 10 μM, carbonate buffer, 10 vol % DMSO, wide [Glu] range): little change
Emission on addition of Fru ([4]; TPEMB 10 μM, carbonate buffer, 10 vol % DMSO, any amount): remained nonemissive

Solubility in alkaline aqueous media ([5]; alkaline aqueous media containing small amount of DMSO): readily soluble
Miscibility with water ([5]; water): immiscible with water
pH below which the luminogen is highly emissive [7]: < 9.0
pH above which light emission started to decrease in intensity [7, 11]: > 8.61
pH at which light emission became very weak [7, 11]: ≥ 9.74
Emission of aggregates suspended in acidic buffer ([7]; pH 4.34): strong blue light
Structure (SMILES): OB(O)c1ccc(C(=C(c2ccccc2)c2ccc(B(O)O)cc2)c2ccccc2)cc1 [TPEDB, (1,2-diphenylethene-1,2-diyl)bis(1,4-phenylene)-1,1′-diboronic acid]
Glu concentration at which the FL spectrum of TPEDB was intensified (below it almost no change) ([3]; TPEDB 50 μM, carbonate buffer pH 10.5): 0.2 mM
[Glu] at which FL intensity reaches its maximum ([3]; TPEDB 50 μM, carbonate buffer pH 10.5, intensity decreases above): 5 mM
Effect of Glu in artificial urine on FL spectrum [6]: augmented its FL spectrum
Change of emission spectrum on addition of Fru ([4]; 10 mM Fru, TPEDB in carbonate buffer): only slightly intensified
Interference of the isomeric saccharides to the FL response to Glu ([8]; 0.1 mM Fru, Gal or Man interferent, TPEDB 50 μM, carbonate buffer): almost no interference
Affinity order of saccharide to TPEDB ([8]; suggested from interference data): Fru>Gal≈Man>Glu

Structure (SMILES): OB(O)c1ccccc1 [PBA, phenylboronic acid]
pKa [9]: ca. 9
Ka,sugar/Ka,Glu ([10]; Fru): 34.8
Ka,sugar/Ka,Glu ([10]; Gal): 3.3
Ka,sugar/Ka,Glu ([10]; Man): 2.8
